From ChEMBL document CHEMBL1150759, “[Cytotoxic and antibacterial substances from the ascidian Aplidium antillense]” (J Nat Prod, 1988)
Converted amounts (≈) assume the structure as drawn.

What was measured:
Staphylococcus aureus [1] = assay: Antimicrobial activity against methicillin-sensitive Staphylococcus aureus; format: functional
Staphylococcus aureus [2] = assay: Antimicrobial activity against methicillin-resistant Staphylococcus aureus; format: functional
KB = assay: Cytotoxicity against human KB cells; format: functional, cell-based
P388 = assay: Cytotoxicity against mouse P388 cells; format: functional, cell-based
Enterococcus faecalis = assay: Antimicrobial activity against Streptococcus faecalis; format: functional
Pseudomonas aeruginosa = assay: Antimicrobial activity against Pseudomonas aeruginosa; format: functional
Escherichia coli = assay: Antimicrobial activity against Escherichia coli; format: functional
Klebsiella pneumoniae = assay: Antimicrobial activity against Klebsiella pneumoniae; format: functional
Proteus mirabilis = assay: Antimicrobial activity against Proteus mirabilis; format: functional
Morganella morganii = assay: Antimicrobial activity against Morganella morganii; format: functional
Serratia marcescens = assay: Antimicrobial activity against Serratia marcescens; format: functional

SMILES | MBC/MIC ratio (Staphylococcus aureus [1]) | MIC (Staphylococcus aureus [1]) [µg/mL] | MBC/MIC ratio (Staphylococcus aureus [2]) | MIC (Staphylococcus aureus [2]) [µg/mL] | IC50 (KB) [µg/mL] | IC50 (P388) [µg/mL] | MBC/MIC ratio (Enterococcus faecalis) | MIC (Enterococcus faecalis) [µg/mL] | MIC (Pseudomonas aeruginosa) [µg/mL] | MIC (Escherichia coli) [µg/mL] | MIC (Klebsiella pneumoniae) [µg/mL] | MIC (Proteus mirabilis) [µg/mL] | MIC (Morganella morganii) [µg/mL] | MIC (Serratia marcescens) [µg/mL]
CC(C)=CCCC1(C)C=Cc2cc(O)ccc2O1 (stereo not drawn) [CORDIACHROMENE A] | 2 | 64 (≈ 262 µM) | 2 | 64 (≈ 262 µM) | 36 (≈ 147 µM) | 0.5 (≈ 2.05 µM) | 1 | 64 (≈ 262 µM) | > 256 | > 256 | > 256 | > 256 | > 256 | > 256
CC(C)=CCC/C(C)=C/Cc1cc(O)ccc1O [GEROQUINOL] | 2 | 64 (≈ 260 µM) | 2 | 64 (≈ 260 µM) | 4.3 (≈ 17.5 µM) | 0.034 (≈ 0.138 µM) | 1 | 64 (≈ 260 µM) | > 256 | > 256 | > 256 | > 256 | > 256 | 128 (≈ 520 µM)
